Test results as given in patent US12539292B2, “BRM targeting compounds and associated methods of use” (Arvinas Operations, Inc., priority 2018, dated 2026).

Biological target: T1, BRM (Homo sapiens, UniProt P51531)
T1 construct: In-Cell Western Screen of BRM Degradation in SW1573 Cells; endogenous in cells; host or cells: SW1573
Test: In-cell Western screen of BRM degradation in SW1573 cells (Dmax and DC50)
Assay type: cell-based
Details: for Dmax: SW1573, % degraded, when tested at the top concentration of between 0.3 and 10 μM, read-out: BRM Dmax (%); for DC50: target protein degradation, read-out: BRM DC50
Outline: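 SW1573, overnight cpd exposure (18-20 h), 0.1% DMSO final. PFA fix, 0.5% Triton permeabilization, block; IR secondaries at 800/680 nm. Odyssey read → Dmax, DC50.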

T1 sequence (P51531 whole entry): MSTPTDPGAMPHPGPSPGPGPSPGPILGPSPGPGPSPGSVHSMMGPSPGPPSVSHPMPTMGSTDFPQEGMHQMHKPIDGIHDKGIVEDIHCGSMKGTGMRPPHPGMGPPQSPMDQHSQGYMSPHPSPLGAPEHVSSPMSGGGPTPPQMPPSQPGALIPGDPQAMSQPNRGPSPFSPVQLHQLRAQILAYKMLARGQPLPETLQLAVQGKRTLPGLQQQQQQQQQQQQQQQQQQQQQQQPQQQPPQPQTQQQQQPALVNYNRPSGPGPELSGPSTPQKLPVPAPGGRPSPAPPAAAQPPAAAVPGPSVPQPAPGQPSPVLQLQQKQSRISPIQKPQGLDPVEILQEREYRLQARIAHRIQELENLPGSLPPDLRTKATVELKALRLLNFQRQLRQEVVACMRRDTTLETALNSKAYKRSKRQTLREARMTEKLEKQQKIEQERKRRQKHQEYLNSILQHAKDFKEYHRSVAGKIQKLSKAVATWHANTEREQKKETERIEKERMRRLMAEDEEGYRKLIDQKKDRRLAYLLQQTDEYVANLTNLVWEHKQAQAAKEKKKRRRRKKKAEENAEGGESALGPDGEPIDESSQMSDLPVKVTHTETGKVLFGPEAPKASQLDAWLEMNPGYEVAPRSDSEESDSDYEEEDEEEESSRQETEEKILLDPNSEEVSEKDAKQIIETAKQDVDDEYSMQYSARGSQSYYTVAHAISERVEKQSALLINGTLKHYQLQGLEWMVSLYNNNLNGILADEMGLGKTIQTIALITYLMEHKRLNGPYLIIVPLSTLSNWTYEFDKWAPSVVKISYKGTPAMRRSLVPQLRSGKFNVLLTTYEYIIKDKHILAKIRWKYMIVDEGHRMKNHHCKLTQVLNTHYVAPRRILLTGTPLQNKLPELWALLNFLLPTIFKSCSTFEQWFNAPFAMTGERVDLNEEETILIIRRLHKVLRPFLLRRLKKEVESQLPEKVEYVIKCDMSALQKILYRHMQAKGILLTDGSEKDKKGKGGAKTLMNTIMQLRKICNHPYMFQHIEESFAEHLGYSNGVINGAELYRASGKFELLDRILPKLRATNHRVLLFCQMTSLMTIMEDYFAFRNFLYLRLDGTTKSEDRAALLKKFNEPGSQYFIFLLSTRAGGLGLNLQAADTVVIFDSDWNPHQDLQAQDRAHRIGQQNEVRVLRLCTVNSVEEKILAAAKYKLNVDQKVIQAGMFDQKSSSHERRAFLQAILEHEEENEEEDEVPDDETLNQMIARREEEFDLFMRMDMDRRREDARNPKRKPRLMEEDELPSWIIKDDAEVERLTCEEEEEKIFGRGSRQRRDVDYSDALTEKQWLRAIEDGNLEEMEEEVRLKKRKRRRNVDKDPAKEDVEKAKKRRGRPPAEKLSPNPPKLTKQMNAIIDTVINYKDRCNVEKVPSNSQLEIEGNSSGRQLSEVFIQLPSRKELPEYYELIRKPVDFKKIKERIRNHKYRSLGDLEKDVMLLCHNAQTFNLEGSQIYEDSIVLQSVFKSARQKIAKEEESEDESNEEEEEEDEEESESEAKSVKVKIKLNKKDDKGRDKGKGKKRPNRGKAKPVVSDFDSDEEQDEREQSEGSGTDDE

| SMILES | Dmax [%] | DC50 [nM] |
| --- | --- | --- |
| COCCOCCOCCOCCOCCOCCOCCOCCOCCOCCOCCOCCOCCOCCOCCOCCOCCOCCOCCOCCOCCOCCOC(=O)CCC(=O)O[C@@H]1C[C@@H](C(=O)N[C@@H](C)c2ccc(-c3scnc3C)cc2)N(C(=O)[C@@H](c2cc(OCCN3CCC(O[C@H]4C[C@H](Oc5cc(N6C7CCC6CN(c6cc(-c8ccccc8O)nnc6N)C7)ccn5)C4)CC3)no2)C(C)C)C1 [compound 460, (3R,5S)-1-((2R)-2-(3-(2-(4-((1r,3R)-3-((4-(3-(3-amino-6-(2-hydroxyphenyl)pyridazin-4-yl)-3,8-diazabicyclo[3.2.1]octan-8-yl)pyridin-2-yl)oxy)cyclobutoxy)piperidin-1-yl)ethoxy)isoxazol-5-yl)-3-methylbutanoyl)-5-(((S)-1-(4-(4-methylthiazol-5-yl)phenyl)ethyl)carbamoyl) pyrrolidin-3-yl (2,5,8,11,14,17,20,23,26,29,32,3 5,38,41,44,47,50,53,56,59,62,65-docosaoxaheptahexacontan-67-yl) succinate] | > 75 | < 2.5 |
| Cc1ncsc1-c1ccc([C@H](C)NC(=O)[C@@H]2C[C@@H](O)CN2C(=O)[C@@H](c2cc(OCCN3CCC(O[C@H]4C[C@H](Oc5cccc(N6C7CCC6CN(c6cc(-c8ccccc8O)nnc6N)C7)c5)C4)CC3)no2)C(C)C)cc1 [compound 462, (2S,4R)-1-((2R)-2-(3-(2-(4-((1r,3R)-3-(3-(3-(3-amino-6-(2-hydroxyphenyl)pyridazin-4-yl)-3,8-diazabicyclo[3.2.1]octan-8-yl)phenoxy)cyclobutoxy)piperidin-1-yl)ethoxy)isoxazol-5-yl)-3-methylbutanoyl)-4-hydroxy-N-((S)-1-(4-(4-methylthiazol-5-yl)phenyl)ethyl)pyrrolidine-2-carboxamide] | > 75 | < 2.5 |
| Cc1ncsc1-c1ccc([C@H](C)NC(=O)[C@@H]2C[C@@H](O)CN2C(=O)[C@H](c2cc(OCCN3CCC(O[C@H]4C[C@H](Oc5nccc(N6C7CCC6CN(c6cc(-c8ccccc8O)nnc6N)C7)n5)C4)CC3)no2)C(C)C)cc1 [compound 463, (2S,4R)-1-((2S)-2-(3-(2-(4-((1r,3S)-3-((4-(3-(3-amino-6-(2-hydroxyphenyl)pyridazin-4-yl)-3,8-diazabicyclo[3.2.1]octan-8-yl)pyrimidin-2-yl)oxy)cyclobutoxy)piperidin-1-yl)ethoxy)isoxazol-5-yl)-3-methylbutanoyl)-4-hydroxy-N-((S)-1-(4-(4-methylthiazol-5-yl)phenyl)ethyl)pyrrolidine-2-carboxamide] |  | > 30 |
| Cc1ncsc1-c1ccc([C@H](C)NC(=O)[C@@H]2C[C@@H](O)CN2C(=O)[C@@H](c2cc(OCCN3CCC(O[C@H]4C[C@H](Oc5nccc(N6C7CCC6CN(c6cc(-c8ccccc8O)nnc6N)C7)n5)C4)CC3)no2)C(C)C)cc1 [compound 464, (2S,4R)-1-((2R)-2-(3-(2-(4-((1r,3R)-3-((4-(3-(3-amino-6-(2-hydroxyphenyl)pyridazin-4-yl)-3,8-diazabicyclo[3.2.1]octan-8-yl)pyrimidin-2-yl)oxy)cyclobutoxy)piperidin-1-yl)ethoxy)isoxazol-5-yl)-3-methylbutanoyl)-4-hydroxy-N-((S)-1-(4-(4-methylthiazol-5-yl)phenyl)ethyl)pyrrolidine-2-carboxamide] | > 75 | < 2.5 |
| Cc1ncsc1-c1ccc([C@H](C)NC(=O)[C@@H]2C[C@@H](O)CN2C(=O)[C@H](c2cc(OCCC3CCN(C(=O)[C@H]4C[C@@H](CN5CCC(n6cc(-c7cc(-c8ccccc8O)nnc7N)cn6)CC5)C4)CC3)no2)C(C)C)cc1 [compound 465, (2S,4R)-1-((S)-2-(3-(2-(1-((1s,3R)-3-((4-(4-(3-amino-6-(2-hydroxyphenyl)pyridazin-4-yl)-1H-pyrazol-1-yl)piperidin-1-yl)methyl)cyclobutane-1-carbonyl)piperidin-4-yl)ethoxy)isoxazol-5-yl)-3-methylbutanoyl)-4-hydroxy-N-((S)-1-(4-(4-methylthiazol-5-yl)phenyl)ethyl)pyrrolidine-2-carboxamide] | > 75 | < 2.5 |
